Earlier results as cited in article PMC5762859, “Distribution analysis of epertinib in brain metastasis of HER2-positive breast cancer by imaging mass spectrometry and prospect for antitumor activity” (Scientific Reports, 2018).

Tests used:
[1] = healthy volunteers, single oral 250 mg [14C]-lapatinib; cited from earlier work
P-glycoprotein (P-gp) = target: T1, P-glycoprotein (P-gp) (Homo sapiens, UniProt P08183); conditions: cited from earlier work
T1 construct: permeability and efflux ratio of epertinib across Caco-2 cell monolayers; endogenous in cells; host or cells: Caco-2
T1 sequence (P08183 whole entry): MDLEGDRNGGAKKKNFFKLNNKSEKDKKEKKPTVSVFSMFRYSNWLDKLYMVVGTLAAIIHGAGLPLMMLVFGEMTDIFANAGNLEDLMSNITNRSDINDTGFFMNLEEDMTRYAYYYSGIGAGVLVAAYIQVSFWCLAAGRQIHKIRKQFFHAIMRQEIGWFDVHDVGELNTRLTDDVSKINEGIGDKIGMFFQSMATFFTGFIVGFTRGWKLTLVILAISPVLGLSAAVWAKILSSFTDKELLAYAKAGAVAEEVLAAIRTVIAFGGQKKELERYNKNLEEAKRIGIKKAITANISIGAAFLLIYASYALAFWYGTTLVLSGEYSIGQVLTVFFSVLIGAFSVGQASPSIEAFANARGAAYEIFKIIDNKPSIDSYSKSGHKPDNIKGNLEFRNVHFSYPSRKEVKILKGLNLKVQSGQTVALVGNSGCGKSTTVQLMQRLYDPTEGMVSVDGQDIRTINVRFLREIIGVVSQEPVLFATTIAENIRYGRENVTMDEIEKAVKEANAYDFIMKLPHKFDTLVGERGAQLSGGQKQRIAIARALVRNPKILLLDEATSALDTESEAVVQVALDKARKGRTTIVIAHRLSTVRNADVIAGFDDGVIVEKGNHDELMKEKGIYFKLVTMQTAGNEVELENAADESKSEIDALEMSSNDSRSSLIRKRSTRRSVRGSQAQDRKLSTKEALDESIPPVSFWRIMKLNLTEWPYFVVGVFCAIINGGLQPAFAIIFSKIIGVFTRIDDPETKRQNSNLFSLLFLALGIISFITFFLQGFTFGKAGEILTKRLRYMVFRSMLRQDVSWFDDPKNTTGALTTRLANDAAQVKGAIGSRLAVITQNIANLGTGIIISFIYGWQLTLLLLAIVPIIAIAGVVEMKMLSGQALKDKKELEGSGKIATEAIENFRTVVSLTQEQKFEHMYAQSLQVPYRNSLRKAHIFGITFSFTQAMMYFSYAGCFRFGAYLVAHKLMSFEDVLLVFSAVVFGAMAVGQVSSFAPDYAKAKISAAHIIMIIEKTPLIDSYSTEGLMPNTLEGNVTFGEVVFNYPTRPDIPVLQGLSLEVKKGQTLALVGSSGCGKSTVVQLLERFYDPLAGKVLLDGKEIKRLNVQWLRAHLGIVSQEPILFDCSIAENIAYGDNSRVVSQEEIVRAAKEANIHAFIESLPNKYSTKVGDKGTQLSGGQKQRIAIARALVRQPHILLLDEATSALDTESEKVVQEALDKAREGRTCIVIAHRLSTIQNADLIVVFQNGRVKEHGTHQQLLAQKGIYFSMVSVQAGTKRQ

[2] = target: T2, breast cancer resistance protein (BCRP) (Homo sapiens, UniProt Q9UNQ0); conditions: cited from earlier work
T2 construct: permeability and efflux ratio of epertinib across Caco-2 cell monolayers; endogenous in cells; host or cells: Caco-2
T2 sequence (Q9UNQ0 1-655): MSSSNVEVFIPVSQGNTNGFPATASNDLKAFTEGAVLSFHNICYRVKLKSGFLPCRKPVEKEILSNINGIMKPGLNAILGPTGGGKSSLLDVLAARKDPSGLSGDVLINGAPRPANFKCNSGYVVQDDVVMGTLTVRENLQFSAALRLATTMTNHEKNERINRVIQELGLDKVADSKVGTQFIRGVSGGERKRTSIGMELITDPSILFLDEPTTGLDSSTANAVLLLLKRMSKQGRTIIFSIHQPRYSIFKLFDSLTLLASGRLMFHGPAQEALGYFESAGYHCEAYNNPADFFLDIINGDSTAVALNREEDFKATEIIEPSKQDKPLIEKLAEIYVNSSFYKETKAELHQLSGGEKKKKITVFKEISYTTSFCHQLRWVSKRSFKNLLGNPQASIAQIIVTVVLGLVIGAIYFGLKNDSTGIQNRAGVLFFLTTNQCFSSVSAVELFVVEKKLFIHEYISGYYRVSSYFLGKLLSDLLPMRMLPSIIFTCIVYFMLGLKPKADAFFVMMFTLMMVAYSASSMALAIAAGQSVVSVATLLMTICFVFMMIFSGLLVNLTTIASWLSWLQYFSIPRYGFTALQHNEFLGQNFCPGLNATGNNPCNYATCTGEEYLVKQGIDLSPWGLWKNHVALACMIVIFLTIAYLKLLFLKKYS

[3] = system: HER2-positive metastatic breast cancer patients; conditions: historical data, combination with trastzumab; cited from earlier work

Row | Compound | Mean plasma concentration of total radioactivity at Cmax [1] [ng eq./mL] | P-gp substrate (P-glycoprotein (P-gp)) | BCRP substrate [2] | Objective response rate (ORR) [3] [%]
1 | CS(=O)(=O)CCNCc1ccc(-c2ccc3ncn[14c](Nc4ccc(OCc5cccc(F)c5)c(Cl)c4)c3c2)o1.Cc1ccc(S(=O)(=O)O)cc1.O [[^14C]-lapatinib] | 720 |  |  | 
2 | CN(C)C/C=C/C(=O)Nc1cc2c(Nc3ccc(F)c(Cl)c3)ncnc2cc1O[C@H]1CCOC1 [afatinib] |  | substrates | substrates | 
3 | CCOc1cc2ncc(C#N)c(Nc3ccc(OCc4ccccn4)c(Cl)c3)c2cc1NC(=O)/C=C/CN(C)C [neratinib] |  | substrates | substrates | 
4 | Cc1cc(Nc2ncnc3ccc(NC4=NC(C)(C)CO4)cc23)ccc1Oc1ccn2ncnc2c1 [tucatinib] |  | substrates | substrates | 26
